The test system of series [1] is stratum corneum of excised porcine skin. The series can be described thus: Semi-permanent retention of topical mark on excised porcine skin after repeated washing, and localization after bisection (FIG. 7). The note with it: for retention of the mark on skin after washing: gel dried 10 minutes, washed after 3 hours, washing procedure repeated five times. An excerpt:
FIG. 7 is a set of annotated visible and ultraviolet photographs of excised porcine skin areas exposed to the composition described in Example 8 according to the method of Example 10, labeled o-phthalaldehyde, accompanied by a positive control based on genipin and three negative controls based on a commercially available organic and mineral SPF-30 sunscreens and permanent black marker, taken before the skin was washed, then after one wash, after five washes, and after five washes and bisection.
20 mg of 3,6-dihydroxy-4,5-dimethyl-1,2-benzenedicarboxaldehyde was mixed directly into 230 mg of a gel comprising 79.715% v/v water, 20% v/v ethanol, and 0.285% v/v carbomer 940 and stirred mechanically until a homogenous gel was obtained.
Freshly excised porcine skin was allowed to hydrate in reverse-osmosis purified water for 4 h, then it was cut into rectangular samples and stored for 24 hours in a closed container on top of a paper towel saturated with a solution of 90% water and 10% glycerol. The stratum corneum was wiped with a cotton gauze pad saturated with an aqueous solution of lysine at a concentration of 2 wt %. The gel composition prepared as described in […] was scooped onto a spatula, which was used to apply a thin layer of the gel in a circle of approximately 1-cm diameter on the stratum corneum. After allowing the gel to dry on the skin for 10 minutes, the skin sample was returned to the closed container with the saturated paper towel to allow the skin to remain hydrate while the reaction continued to develop. After 3 hours, the skin was removed and washed liberally by scrubbing the skin with a loofah saturated with a soap solution of 10% alcanox in water until a foam lather was formed, rinsed with reverse-osmosis water, and wiped with a paper towel saturated with a 70% isopropanol solution, and finally patted dry with a paper towel. This washing procedure was repeated five times.

A short description of series [2]: Ultraviolet-visible absorption spectra of solutions of o-phthalaldehyde ultraviolet absorbers vs the parent carboxylic acids (FIG. 4). Format: physicochemical. The note with it: solution; for visible absorption introduced by the 3-(3,4-diformylphenyl)propyl moiety: compared with corresponding carboxylic acids. An excerpt: FIG. 4 is a set of graphs of the ultraviolet-visible absorption spectra of solutions of (a) 4-((3-(2H-benzo[d][1,2,3]triazol-2-yl)-2-hydroxy-5-methylbenzyl)oxy)phthalaldehyde, prepared according to the process described in example 3, and 3-(3-(benzotriazole-2-yl)-5-tert-butyl-4-hydroxyphenyl)propanoic acid, (b) 3-(3-(2H-benzo[d][1,2,3]triazol-2-yl)-5-(tert-butyl)-4-hydroxyphenyl)propanoate, prepared according to the process described in Example 4, and 2-(4-diethylamino-2-hydroxybenzoyl)benzoic acid, (c) 3-(3,4-diformylphenyl)propyl 3-(4-methoxyphenyl)acrylate, prepared according to the process described in example 5, and 4-methoxycinnamic acid.

As for `Cc1c(C)c(O)c(C=O)c(C=O)c1O` [3,6-dihydroxy-4,5-dimethyl-1,2-benzenedicarboxaldehyde], the “localization / penetration in skin layers” value in series [1] (excessively washed, bisected through to the subcutis) is “localized in the stratum corneum and did not penetrate to lower epidermal or dermal layers of the skin”. The “retention of the mark on skin after washing” value in series [1] is “retained”. For the compound `CC(C)(C)c1cc(CCC(=O)OCCCc2ccc(C=O)c(C=O)c2)cc(-n2nc3ccccc3n2)c1O` [Example 3, 3-(3,4-diformylphenyl)propyl 3-(3-(2H-benzo[d][1,2,3]triazol-2-yl)-5-(tert-butyl)-4-hydroxyphenyl)propanoate], in series [2], the “alteration of the absorption profiles of the ultraviolet-absorbing moieties by the 3-(3,4-diformylphenyl)propyl moiety” value is “only minor alteration of the absorption profiles” and the “visible absorption introduced by the 3-(3,4-diformylphenyl)propyl moiety” value is reported as “without introducing substantial visible absorption”. Taken in the same sequence, the figures for `CCN(CC)c1ccc(C(=O)c2ccccc2C(=O)OCCCc2ccc(C=O)c(C=O)c2)c(O)c1` [Example 4, 3-(3,4-diformylphenyl)propyl 2-(4-(diethylamino)-2-hydroxybenzoyl)benzoate] were “only minor alteration of the absorption profiles” and “without introducing substantial visible absorption”. For the compound `COc1ccc(C=CC(=O)OCCCc2ccc(C=O)c(C=O)c2)cc1` [Example 5, 3-(3,4-diformylphenyl)propyl 3-(4-methoxyphenyl)acrylate], in series [2], the “alteration of the absorption profiles of the ultraviolet-absorbing moieties by the 3-(3,4-diformylphenyl)propyl moiety” value was “only minor alteration of the absorption profiles” and the “visible absorption introduced by the 3-(3,4-diformylphenyl)propyl moiety” value is reported as “without introducing substantial visible absorption”.

Turning to `COC(=O)C1=CO[C@@H](O)[C@@H]2C(CO)=CC[C@H]12` [genipin, reference compound], the “retention of the mark on skin after washing” value in series [1] is listed as “retained”.

For the origin of these results see patent US20260297038A1, “ORTHO-PHTHALALDEHYDE-FUNCTIONALIZED ULTRAVIOLETABSORBERS AND VISIBLE CHROMOPHORES FOR SEMI-PERMANENT TOPICAL APPLICATIONS” (The Regents of the University of Colorado, a body corporate, priority 2023, published 2026).
